Test results as given in ChEMBL document CHEMBL3400016, “Isolation, synthesis and anti-hepatitis B virus evaluation of p-hydroxyacetophenone derivatives from Artemisia capillaris” (Bioorg Med Chem Lett, 2015).

Tests used:
[1] = Cytotoxicity against human HepG 2.2.15 cells by MTT assay; assay type: cell-based, HepG2 2.2.15
Hepatitis B virus [2] = assay: Antiviral activity against hepatitis B viral in human HepG2.2.15 cells assessed as surface antigen HBsAg secretion after 72 hrs by ELISA; assay type: functional, organism-based; conditions: HepG2 2.2.15, 72 h
[3] = Selectivity index, ratio of CC50 for human HepG2.2.15 cells to IC50 for decrease in hepatitis B viral surface antigen HBsAg secretion in human HepG2(2.2.15) cells; assay type: functional
Hepatitis B virus [4] = assay: Antiviral activity against hepatitis B viral in human HepG2.2.15 cells assessed as […] antigen HBeAg secretion after 72 hrs by ELISA; assay type: functional, organism-based; conditions: HepG2 2.2.15, 72 h
Hepatitis B virus [5] = assay: Antiviral activity against hepatitis B viral in human HepG2.2.15 cells assessed as decrease in viral DNA replication treated for 7 days by real time PCR analysis; assay type: functional, organism-based; conditions: HepG2 2.2.15, 168 h
[6] = Selectivity index, ratio of CC50 for human HepG2.2.15 cells to IC50 for decrease in hepatitis B viral DNA replication in human HepG2(2.2.15) cells; assay type: functional
[7] = Selectivity index, ratio of CC50 for human HepG2.2.15 cells to IC50 for decrease in hepatitis B viral […] antigen HBeAg secretion in human HepG2(2.2.15) cells; assay type: functional

| SMILES | CC50 [1] | IC50 (Hepatitis B virus [2]) | Selectivity Index [3] | IC50 (Hepatitis B virus [4]) | IC50 (Hepatitis B virus [5]) | Selectivity Index [6] | Selectivity Index [7] |
| --- | --- | --- | --- | --- | --- | --- | --- |
| CC(=O)c1ccc(OC(=O)c2cccs2)cc1 | > 3710 µM | 3530 µM | >1 | > 3710 µM | > 927 µM | – | – |
| CC(=O)c1ccc(OC(=O)/C=C/c2ccccc2)cc1 | > 2870 µM | 2400 µM | >1.2 | > 2870 µM | > 719 µM | – | – |
| COc1cc(/C=C/C(=O)OC[C@H]2O[C@@H](Oc3ccc(C(C)=O)cc3)[C@H](O)[C@@H](O)[C@@H]2O)cc(OC)c1OC | 925 µM | 526 µM | 1.8 | > 1480 µM | 5.8 µM | 160.3 | – |
| COc1cc(O[C@@H]2O[C@H](CO)[C@@H](O)[C@H](O)[C@H]2O)cc(O)c1C(C)=O | > 2370 µM | > 2370 µM | – | > 2370 µM | 92 µM | >25.7 | – |
| CC(=O)c1ccc(O[C@@H]2O[C@H](CO[C@@H]3OC[C@@H](O)[C@H](O)[C@H]3O)[C@@H](O)[C@H](O)[C@H]2O)cc1 | > 2600 µM | > 2600 µM | – | > 2600 µM | 38.5 µM | >67.5 | – |
| CC(=O)c1ccc(O[C@@H]2O[C@H](COC(=O)/C=C/c3ccc(O)c(O)c3)[C@@H](O)[C@H](O)[C@H]2O)cc1 | 1580 µM | 291 µM | 5.4 | 1280 µM | 8 µM | >197.9 | 1.2 |
| COc1cccc(/C=C/C(=O)Oc2ccc(C(C)=O)cc2)c1 | > 2780 µM | 1260 µM | >2.2 | > 2780 µM | > 696 µM | – | – |
| COc1ccc(/C=C/C(=O)Oc2ccc(C(C)=O)cc2)cc1 | > 3280 µM | > 3280 µM | – | > 3280 µM | > 820 µM | – | – |
| COc1ccc(/C=C/C(=O)Oc2ccc(C(C)=O)cc2)cc1OC | > 2620 µM | 1040 µM | >2.5 | > 2620 µM | 100 µM | >26 | – |
| CC(=O)c1ccc(OC(=O)/C=C/c2ccc3c(c2)OCO3)cc1 | > 3040 µM | 1890 µM | >1.6 | > 3040 µM | > 759 µM | – | – |
| COc1cc(/C=C/C(=O)Oc2ccc(C(C)=O)cc2)cc(OC)c1OC | > 2420 µM | 286 µM | >8.5 | > 2420 µM | 115 µM | >21.1 | – |
| CC(=O)c1ccc(OC(=O)/C=C/c2cccc(F)c2)cc1 | > 3110 µM | 1520 µM | >2 | 2210 µM | > 777 µM | – | >1.4 |
| CC(=O)c1ccc(OC(=O)/C=C/c2ccc(F)cc2)cc1 | > 3310 µM | 1510 µM | >2.2 | 1520 µM | > 828 µM | – | >2.2 |
| CC(=O)c1ccc(OC(=O)/C=C/c2ccc(F)c(F)c2)cc1 | > 2600 µM | 610 µM | >4.3 | 1710 µM | > 649 µM | – | >1.5 |
| CC(=O)c1ccc(OC(=O)c2ccccc2)cc1 | > 3350 µM | 2160 µM | >1.5 | > 3350 µM | 837 µM | – | – |
| COc1cc(C(=O)Oc2ccc(C(C)=O)cc2)cc(OC)c1OC | 1210 µM | 648 µM | 1.9 | > 2580 µM | 88.8 µM | 13.6 | – |
| CC(=O)c1ccc(OC(=O)c2cccnc2)cc1 | 3010 µM | 546 µM | 5.5 | > 3300 µM | 154 µM | 19.5 | – |

| SMILES | CC50 [1] | IC50 (Hepatitis B virus [2]) | Selectivity Index [3] | IC50 (Hepatitis B virus [4]) | IC50 (Hepatitis B virus [5]) | Selectivity Index [6] | Selectivity Index [7] |
| --- | --- | --- | --- | --- | --- | --- | --- |
| CC(=O)c1ccc(OC(=O)c2ccco2)cc1 | > 4050 µM | 1830 µM | >2.2 | > 4050 µM | > 1010 µM | – | – |
| CC(=O)c1ccc(O[C@@H]2O[C@H](COC(=O)/C=C/c3ccccc3)[C@@H](O)[C@H](O)[C@H]2O)cc1 | > 1740 µM | > 1740 µM | – | > 1740 µM | 67.3 µM | >25.9 | – |
| COc1cccc(/C=C/C(=O)OC[C@H]2O[C@@H](Oc3ccc(C(C)=O)cc3)[C@H](O)[C@@H](O)[C@@H]2O)c1 | > 1520 µM | 499 µM | >3 | > 1520 µM | 16.8 µM | >90.5 | – |
| COc1ccc(/C=C/C(=O)OC[C@H]2O[C@@H](Oc3ccc(C(C)=O)cc3)[C@H](O)[C@@H](O)[C@@H]2O)cc1 | 1540 µM | 782 µM | 2 | > 2080 µM | 18.5 µM | 83.2 | – |
| COc1ccc(/C=C/C(=O)OC[C@H]2O[C@@H](Oc3ccc(C(C)=O)cc3)[C@H](O)[C@@H](O)[C@@H]2O)cc1OC | > 1450 µM | 696 µM | >2.1 | > 1450 µM | 8.8 µM | >165 | – |
| CC(=O)c1ccc(O[C@@H]2O[C@H](COC(=O)/C=C/c3ccc4c(c3)OCO4)[C@@H](O)[C@H](O)[C@H]2O)cc1 | > 1470 µM | 698 µM | >2.1 | > 1470 µM | 74.4 µM | >19.8 | – |
| CC(=O)c1ccc(O[C@@H]2O[C@H](COC(=O)/C=C/c3cccc(F)c3)[C@@H](O)[C@H](O)[C@H]2O)cc1 | 828 µM | 434 µM | 1.9 | > 1450 µM | 22.8 µM | 36.5 | – |
| CC(=O)c1ccc(O[C@@H]2O[C@H](COC(=O)/C=C/c3ccc(F)cc3)[C@@H](O)[C@H](O)[C@H]2O)cc1 | 917 µM | 613 µM | 1.5 | > 1520 µM | 64.8 µM | >23.4 | – |
| CC(=O)c1ccc(O[C@@H]2O[C@H](COC(=O)/C=C/c3ccc(F)c(F)c3)[C@@H](O)[C@H](O)[C@H]2O)cc1 | 874 µM | 515 µM | 1.7 | > 1770 µM | 22.5 µM | 38.9 | – |
| CC(=O)c1ccc(O[C@@H]2O[C@H](COC(=O)c3ccccc3)[C@@H](O)[C@H](O)[C@H]2O)cc1 | 1050 µM | 678 µM | 1.5 | > 1680 µM | 93.7 µM | 11.2 | – |
| COc1cc(C(=O)OC[C@H]2O[C@@H](Oc3ccc(C(C)=O)cc3)[C@H](O)[C@@H](O)[C@@H]2O)cc(OC)c1OC | 890 µM | 1350 µM | – | > 1490 µM | 20.7 µM | 42.9 | – |
| CC(=O)c1ccc(O[C@@H]2O[C@H](COC(=O)c3cccnc3)[C@@H](O)[C@H](O)[C@H]2O)cc1 | > 1650 µM | 1430 µM | >1.2 | > 1650 µM | 103 µM | >16 | – |
| CC(=O)c1ccc(O[C@@H]2O[C@H](COC(=O)c3ccco3)[C@@H](O)[C@H](O)[C@H]2O)cc1 | 1170 µM | 571 µM | 2.1 | > 1880 µM | 101 µM | 11.7 | – |
| CC(=O)c1ccc(O[C@@H]2O[C@H](COC(=O)c3cccs3)[C@@H](O)[C@H](O)[C@H]2O)cc1 | 1570 µM | 301 µM | 5.2 | > 1710 µM | 31.4 µM | 50.1 | – |
| CC(=O)c1ccc(O)cc1 [4-HYDROXYACETOPHENONE] | 2390 µM | 786 µM | 3 | 1850 µM | 306 µM | 7.8 | 1.3 |
| CC(=O)c1ccc(O[C@@H]2O[C@H](CO)[C@@H](O)[C@H](O)[C@H]2O)cc1 [PICEIN] | > 3950 µM | > 3950 µM | – | > 3950 µM | 228 µM | >17.3 | – |
| C[C@H](Cn1cnc2c(N)ncnc21)OCP(=O)(O)O [TENOFOVIR ANHYDROUS] | > 1740 µM | > 1740 µM | – | > 1740 µM | 2.9 µM | >600.8 | – |
